In the NIST ThermoML archive (doi:10.1016/j.fluid.2013.11.026):
Numbers after ± are expanded uncertainties.

Columns and labels:
[1] = 101.33 kPa, Liquid, Vibrating tube method
[2] = refractive index (Na D-line) (dimensionless); details: 101.33 kPa, Liquid, Standard Abbe refractometry
[3] = xn = mol fraction of the nth substance listed; details: 101 kPa, Liquid, Vibrating tube method
[4] = excess molar enthalpy (molar enthalpy of mixing); xn = mol fraction of the nth substance listed; details: 101 kPa, Liquid, Calvet calorimetry

COC=O [methyl methanoate]
Details | mass density, [1] [kg/m3] | refractive index, [2]
291.15 K | 977.21 ± 0.24 | 1.3452 ± 0.0005
298.15 K | 966.54 ± 0.24 | 1.3415 ± 0.0005

COC=O [methyl methanoate] + CCCCC
291.15 K
Details | excess molar enthalpy [kcal/mol] | mass density [kg/m3]
[3], x1 = 0.091 | – | 640.27 ± 0.25
[3], x1 = 0.102 | – | 641.95 ± 0.25
[3], x1 = 0.147 | – | 649.45 ± 0.25
[3], x1 = 0.206 | – | 660.56 ± 0.26
[3], x1 = 0.27 | – | 674.05 ± 0.26
[3], x1 = 0.309 | – | 683.08 ± 0.27
[3], x1 = 0.371 | – | 698.6 ± 0.27
[3], x1 = 0.393 | – | 704.52 ± 0.28
[3], x1 = 0.416 | – | 710.63 ± 0.28
[3], x1 = 0.451 | – | 721.01 ± 0.29
[3], x1 = 0.488 | – | 732.21 ± 0.29
[3], x1 = 0.506 | – | 737.92 ± 0.3
[3], x1 = 0.559 | – | 755.6 ± 0.3
[3], x1 = 0.618 | – | 776.61 ± 0.32
[3], x1 = 0.695 | – | 807.5 ± 0.34
[3], x1 = 0.759 | – | 835.94 ± 0.35
[3], x1 = 0.786 | – | 849.13 ± 0.38
[3], x1 = 0.827 | – | 870.13 ± 0.38
[3], x1 = 0.84 | – | 876.82 ± 0.38
[3], x1 = 0.941 | – | 936.47 ± 0.44
[3], x1 = 1 | – | 977.21 ± 0.23
[4], x1 = 0.1107 | 0.1511 ± 0.00143 | –
[4], x1 = 0.2113 | 0.2758 ± 0.00239 | –
[4], x1 = 0.3055 | 0.3714 ± 0.00311 | –
[4], x1 = 0.3765 | 0.418 ± 0.00335 | –
[4], x1 = 0.438 | 0.4412 ± 0.00359 | –
[4], x1 = 0.4783 | 0.4484 ± 0.00359 | –
[4], x1 = 0.5268 | 0.4539 ± 0.00359 | –
[4], x1 = 0.5716 | 0.4503 ± 0.00359 | –
[4], x1 = 0.6028 | 0.4398 ± 0.00359 | –
[4], x1 = 0.6356 | 0.4264 ± 0.00359 | –
[4], x1 = 0.6702 | 0.4089 ± 0.00335 | –
[4], x1 = 0.7191 | 0.3817 ± 0.00311 | –
[4], x1 = 0.7683 | 0.3425 ± 0.00287 | –
[4], x1 = 0.8256 | 0.2882 ± 0.00239 | –
[4], x1 = 0.8773 | 0.2266 ± 0.00215 | –
[4], x1 = 0.9215 | 0.158 ± 0.00167 | –
[4], x1 = 0.9587 | 0.0827 ± 0.00143 | –

CCCCC [pentane]
Details | mass density, [1] [kg/m3] | refractive index, [2]
291.15 K | 627.86 ± 0.23 | 1.3589 ± 0.0005
298.15 K | 620.89 ± 0.23 | 1.3545 ± 0.0005

CCCCC [pentane] + CCCCOC=O
[3], x2 = 0
Details | mass density [kg/m3]
291.15 K | 627.86 ± 0.23
298.15 K | 620.89 ± 0.23

CCCCC [pentane] + CCCOC=O
[3], x2 = 0
Details | mass density [kg/m3]
291.15 K | 627.86 ± 0.23
298.15 K | 620.89 ± 0.23

CCCCC [pentane] + CCOC=O
[3], x2 = 0
Details | mass density [kg/m3]
291.15 K | 627.86 ± 0.23
298.15 K | 620.89 ± 0.23

CCCCC [pentane] + COC=O
Details | mass density [kg/m3]
[3], 291.15 K, x2 = 0 | 627.86 ± 0.23

CCCOC=O [propyl methanoate]
Details | mass density, [1] [kg/m3] | refractive index, [2]
291.15 K | 907.97 ± 1.6 | 1.3778 ± 0.0008
298.15 K | 899.86 ± 1.6 | 1.3752 ± 0.0008

CCCOC=O [propyl methanoate] + CCCCC
Details | excess molar enthalpy, [4] [kcal/mol] | mass density, [3] [kg/m3]
291.15 K, x1 = 0.057 | – | 639.86 ± 0.28
291.15 K, x1 = 0.0666 | 0.0844 ± 0.000956 | –
291.15 K, x1 = 0.117 | – | 653.61 ± 0.3
291.15 K, x1 = 0.1411 | 0.141 ± 0.00143 | –
291.15 K, x1 = 0.166 | – | 665.38 ± 0.32
291.15 K, x1 = 0.2072 | 0.1824 ± 0.00167 | –
291.15 K, x1 = 0.26 | – | 688.38 ± 0.36
291.15 K, x1 = 0.2696 | 0.2106 ± 0.00191 | –
291.15 K, x1 = 0.308 | – | 700.63 ± 0.4
291.15 K, x1 = 0.3154 | 0.2273 ± 0.00191 | –
291.15 K, x1 = 0.3689 | 0.2395 ± 0.00215 | –
291.15 K, x1 = 0.4172 | 0.2433 ± 0.00215 | –
291.15 K, x1 = 0.448 | – | 737.83 ± 0.51
291.15 K, x1 = 0.46 | 0.2431 ± 0.00215 | –
291.15 K, x1 = 0.4953 | 0.2402 ± 0.00215 | –
291.15 K, x1 = 0.5199 | 0.238 ± 0.00215 | –
291.15 K, x1 = 0.537 | – | 763.24 ± 0.61
291.15 K, x1 = 0.5543 | 0.2321 ± 0.00191 | –
291.15 K, x1 = 0.5955 | 0.2218 ± 0.00191 | –
291.15 K, x1 = 0.631 | 0.2122 ± 0.00191 | –
291.15 K, x1 = 0.651 | – | 796.41 ± 0.77
291.15 K, x1 = 0.678 | 0.1974 ± 0.00167 | –
291.15 K, x1 = 0.703 | – | 812.04 ± 0.86
291.15 K, x1 = 0.7184 | 0.1807 ± 0.00167 | –
291.15 K, x1 = 0.7665 | 0.1597 ± 0.00143 | –
291.15 K, x1 = 0.819 | 0.1322 ± 0.0012 | 848.4 ± 1.1
291.15 K, x1 = 0.847 | – | 857.3 ± 1.2
291.15 K, x1 = 0.879 | 0.0949 ± 0.000956 | –
291.15 K, x1 = 0.938 | – | 886.86 ± 1.4
291.15 K, x1 = 0.9403 | 0.0528 ± 0.000956 | –
291.15 K, x1 = 1 | – | 907.97 ± 1.6
298.15 K, x1 = 0.042 | 0.0468 ± 0.000956 | –
298.15 K, x1 = 0.0505 | – | 631.54 ± 0.28
298.15 K, x1 = 0.0794 | – | 638.09 ± 0.29
298.15 K, x1 = 0.1081 | 0.114 ± 0.0012 | –
298.15 K, x1 = 0.1375 | – | 651.43 ± 0.31
298.15 K, x1 = 0.1456 | 0.158 ± 0.00143 | –
298.15 K, x1 = 0.2012 | – | 666.5 ± 0.33
298.15 K, x1 = 0.2109 | 0.2017 ± 0.00167 | –
298.15 K, x1 = 0.2525 | – | 679.23 ± 0.36
298.15 K, x1 = 0.2706 | 0.2294 ± 0.00191 | –
298.15 K, x1 = 0.3178 | – | 695.79 ± 0.4
298.15 K, x1 = 0.3317 | 0.2495 ± 0.00215 | –
298.15 K, x1 = 0.3733 | – | 710.12 ± 0.44
298.15 K, x1 = 0.3889 | 0.2596 ± 0.00215 | –
298.15 K, x1 = 0.4303 | – | 725.46 ± 0.49
298.15 K, x1 = 0.4431 | 0.2631 ± 0.00215 | –
298.15 K, x1 = 0.4798 | – | 739.19 ± 0.55
298.15 K, x1 = 0.4882 | – | 741.75 ± 0.55
298.15 K, x1 = 0.4905 | 0.2627 ± 0.00215 | –
298.15 K, x1 = 0.5353 | 0.2584 ± 0.00215 | –
298.15 K, x1 = 0.5467 | – | 758.38 ± 0.62
298.15 K, x1 = 0.5637 | 0.2548 ± 0.00215 | –
298.15 K, x1 = 0.6019 | – | 774.28 ± 0.69
298.15 K, x1 = 0.6149 | 0.245 ± 0.00215 | –
298.15 K, x1 = 0.67 | 0.2326 ± 0.00191 | –
298.15 K, x1 = 0.6778 | – | 796.75 ± 0.81
298.15 K, x1 = 0.7271 | 0.2125 ± 0.00191 | –
298.15 K, x1 = 0.7597 | – | 822.01 ± 0.96
298.15 K, x1 = 0.7888 | 0.1809 ± 0.00167 | –
298.15 K, x1 = 0.8079 | – | 837.19 ± 1.1
298.15 K, x1 = 0.8503 | – | 850.78 ± 1.2
298.15 K, x1 = 0.8511 | 0.141 ± 0.00143 | –
298.15 K, x1 = 0.9096 | 0.0927 ± 0.0012 | –
298.15 K, x1 = 0.9251 | – | 874.84 ± 1.4
298.15 K, x1 = 0.9655 | 0.0442 ± 0.000956 | –
298.15 K, x1 = 1 | – | 899.86 ± 1.6
